Measurements: ChEMBL document CHEMBL4011588, “Design, synthesis, and biological evaluation of novel 4-anilinoquinazoline derivatives bearing amino acid moiety as potential EGFR kinase inhibitors” (Eur J Med Chem, 2017)
Calls of active or inactive are those of the source. No cut-off for these calls is given here.

Assays:
[1] = test system: HepG2; assay: Induction of apoptosis in human HepG2 cells assessed as late apoptotic cells at 10 uM after 24 to 72 hrs by Annexin V-FITC/propidium iodide staining based flow cytometric method (reference value: 4.56%); type: functional
[2] = test system: HepG2; assay: Induction of apoptosis in human HepG2 cells assessed as early apoptotic cells at 10 uM after 24 to 72 hrs by Annexin V-FITC/propidium iodide staining based flow cytometric method (reference value: 1.28%); type: functional
[3] = test system: HepG2; assay: Antiproliferative activity against human HepG2 cells after 72 hrs by sulforhodamine B assay; type: functional, cell-based; settings: HepG2, 72 h
[4] = biological target: Epidermal growth factor receptor (Homo sapiens, UniProt P00533); assay: Inhibition of EGFR (unknown origin) measured after 40 mins by Kinase Glo luminescence assay
Sequence of Epidermal growth factor receptor (P00533 whole entry): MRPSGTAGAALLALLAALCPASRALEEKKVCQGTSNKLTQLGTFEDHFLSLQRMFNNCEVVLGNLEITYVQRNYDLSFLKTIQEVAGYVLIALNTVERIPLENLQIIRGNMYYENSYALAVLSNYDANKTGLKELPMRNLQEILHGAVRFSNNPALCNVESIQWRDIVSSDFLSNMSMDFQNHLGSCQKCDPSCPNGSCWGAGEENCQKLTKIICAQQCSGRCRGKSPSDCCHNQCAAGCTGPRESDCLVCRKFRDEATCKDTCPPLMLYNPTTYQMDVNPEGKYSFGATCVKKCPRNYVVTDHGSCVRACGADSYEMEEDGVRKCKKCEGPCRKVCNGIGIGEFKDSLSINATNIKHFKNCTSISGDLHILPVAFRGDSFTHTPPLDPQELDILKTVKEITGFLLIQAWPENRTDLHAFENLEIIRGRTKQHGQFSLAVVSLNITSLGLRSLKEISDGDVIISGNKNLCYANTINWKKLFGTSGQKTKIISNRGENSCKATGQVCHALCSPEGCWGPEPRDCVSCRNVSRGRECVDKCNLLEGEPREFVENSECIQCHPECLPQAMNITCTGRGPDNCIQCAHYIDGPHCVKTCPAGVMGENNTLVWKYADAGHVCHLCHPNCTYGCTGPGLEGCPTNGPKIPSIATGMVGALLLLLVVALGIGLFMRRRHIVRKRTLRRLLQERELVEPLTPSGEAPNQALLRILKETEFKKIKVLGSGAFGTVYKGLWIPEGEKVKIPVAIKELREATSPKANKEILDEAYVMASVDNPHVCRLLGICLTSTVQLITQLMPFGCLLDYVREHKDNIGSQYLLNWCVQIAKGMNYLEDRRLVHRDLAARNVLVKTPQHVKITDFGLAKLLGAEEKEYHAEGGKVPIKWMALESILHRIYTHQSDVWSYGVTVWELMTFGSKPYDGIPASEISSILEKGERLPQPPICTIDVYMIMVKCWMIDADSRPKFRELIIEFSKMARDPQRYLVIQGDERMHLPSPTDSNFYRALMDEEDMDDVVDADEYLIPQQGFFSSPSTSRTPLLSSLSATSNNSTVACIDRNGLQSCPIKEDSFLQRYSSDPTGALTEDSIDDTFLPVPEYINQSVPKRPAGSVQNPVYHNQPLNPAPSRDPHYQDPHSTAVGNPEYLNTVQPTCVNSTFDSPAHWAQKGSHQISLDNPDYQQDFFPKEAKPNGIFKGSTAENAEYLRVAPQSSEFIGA

[5] = biological target: Aurora kinase B (Homo sapiens, UniProt Q96GD4); assay: Inhibition of Aurora B (unknown origin) measured after 40 mins by Kinase Glo luminescence assay
Sequence of Aurora kinase B (Q96GD4 whole entry): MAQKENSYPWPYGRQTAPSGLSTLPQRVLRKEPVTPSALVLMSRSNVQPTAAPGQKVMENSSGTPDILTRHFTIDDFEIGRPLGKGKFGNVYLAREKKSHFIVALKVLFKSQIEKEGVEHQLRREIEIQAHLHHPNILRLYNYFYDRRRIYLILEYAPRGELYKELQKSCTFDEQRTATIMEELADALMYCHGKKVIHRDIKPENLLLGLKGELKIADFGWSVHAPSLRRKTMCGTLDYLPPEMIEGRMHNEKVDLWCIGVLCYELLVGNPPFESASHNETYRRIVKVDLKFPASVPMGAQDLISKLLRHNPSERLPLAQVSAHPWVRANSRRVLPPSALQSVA

[6] = test system: HepG2; assay: Induction of apoptosis in human HepG2 cells assessed as late apoptotic cells at 5 uM after 24 to 72 hrs by Annexin V-FITC/propidium iodide staining based flow cytometric method (reference value: 4.56%); type: functional
[7] = test system: HepG2; assay: Induction of apoptosis in human HepG2 cells assessed as appearance of apoptotic bodies at 2 to 10 uM after 15 mins to 24 hrs by Hoechst 33258 staining based fluorescence microscopic method; type: functional, cell-based
[8] = test system: HepG2; assay: Induction of apoptosis in human HepG2 cells assessed as late apoptotic cells at 2 uM after 24 to 72 hrs by Annexin V-FITC/propidium iodide staining based flow cytometric method (reference value: 4.56%); type: functional
[9] = biological target: Hepatocyte growth factor receptor (Homo sapiens, UniProt P08581); assay: Inhibition of c-MET (unknown origin) measured after 40 mins by Kinase Glo luminescence assay
Sequence of Hepatocyte growth factor receptor (P08581 whole entry): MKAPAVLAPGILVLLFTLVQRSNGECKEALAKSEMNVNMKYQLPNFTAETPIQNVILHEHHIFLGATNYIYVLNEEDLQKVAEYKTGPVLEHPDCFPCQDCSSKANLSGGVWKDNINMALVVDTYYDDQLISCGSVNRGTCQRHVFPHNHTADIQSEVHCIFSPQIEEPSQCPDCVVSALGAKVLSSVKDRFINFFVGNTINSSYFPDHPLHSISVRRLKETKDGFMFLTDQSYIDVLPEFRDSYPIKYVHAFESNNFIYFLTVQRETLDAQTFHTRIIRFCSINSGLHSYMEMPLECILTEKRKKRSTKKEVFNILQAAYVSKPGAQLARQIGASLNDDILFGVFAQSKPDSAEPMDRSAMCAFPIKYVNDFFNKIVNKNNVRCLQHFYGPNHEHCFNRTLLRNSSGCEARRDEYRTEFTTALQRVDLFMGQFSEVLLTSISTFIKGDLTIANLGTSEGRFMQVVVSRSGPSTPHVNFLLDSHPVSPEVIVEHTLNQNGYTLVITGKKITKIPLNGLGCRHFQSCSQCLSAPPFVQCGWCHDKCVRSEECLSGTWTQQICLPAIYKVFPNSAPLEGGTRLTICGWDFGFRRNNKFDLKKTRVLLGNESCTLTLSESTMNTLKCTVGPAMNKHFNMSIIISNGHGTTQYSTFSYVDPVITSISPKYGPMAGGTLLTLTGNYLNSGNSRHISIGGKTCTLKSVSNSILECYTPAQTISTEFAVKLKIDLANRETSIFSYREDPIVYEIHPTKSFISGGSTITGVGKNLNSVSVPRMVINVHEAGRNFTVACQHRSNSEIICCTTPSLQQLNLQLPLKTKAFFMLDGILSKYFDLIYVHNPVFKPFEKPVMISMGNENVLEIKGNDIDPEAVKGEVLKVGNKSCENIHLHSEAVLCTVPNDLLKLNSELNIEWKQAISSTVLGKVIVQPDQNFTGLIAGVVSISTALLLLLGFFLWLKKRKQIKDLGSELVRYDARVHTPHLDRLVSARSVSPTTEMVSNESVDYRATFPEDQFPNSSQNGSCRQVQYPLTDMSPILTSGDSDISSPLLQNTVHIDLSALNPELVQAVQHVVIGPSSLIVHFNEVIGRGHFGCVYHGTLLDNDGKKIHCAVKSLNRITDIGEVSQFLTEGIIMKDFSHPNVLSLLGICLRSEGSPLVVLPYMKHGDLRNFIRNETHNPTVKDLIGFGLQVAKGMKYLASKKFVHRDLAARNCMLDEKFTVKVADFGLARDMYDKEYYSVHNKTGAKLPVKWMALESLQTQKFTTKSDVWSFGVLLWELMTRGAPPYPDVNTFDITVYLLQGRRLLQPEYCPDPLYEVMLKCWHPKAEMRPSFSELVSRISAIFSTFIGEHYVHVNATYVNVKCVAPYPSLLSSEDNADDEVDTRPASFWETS

[10] = biological target: Dual specificity mitogen-activated protein kinase kinase; MEK1/2 (Homo sapiens, UniProt P36507+Q02750); assay: Inhibition of MEK (unknown origin) measured after 40 mins by Kinase Glo luminescence assay
[11] = test system: HepG2; assay: Induction of apoptosis in human HepG2 cells assessed as increase in cleaved caspase-3 level at 5 to 10 uM after 30 mins to 24 hrs by Western blot method; type: functional, cell-based
[12] = biological target: RAF proto-oncogene serine/threonine-protein kinase (Homo sapiens, UniProt P04049); assay: Inhibition of RAF (unknown origin) measured after 40 mins by Kinase Glo luminescence assay
Sequence of RAF proto-oncogene serine/threonine-protein kinase (P04049 whole entry): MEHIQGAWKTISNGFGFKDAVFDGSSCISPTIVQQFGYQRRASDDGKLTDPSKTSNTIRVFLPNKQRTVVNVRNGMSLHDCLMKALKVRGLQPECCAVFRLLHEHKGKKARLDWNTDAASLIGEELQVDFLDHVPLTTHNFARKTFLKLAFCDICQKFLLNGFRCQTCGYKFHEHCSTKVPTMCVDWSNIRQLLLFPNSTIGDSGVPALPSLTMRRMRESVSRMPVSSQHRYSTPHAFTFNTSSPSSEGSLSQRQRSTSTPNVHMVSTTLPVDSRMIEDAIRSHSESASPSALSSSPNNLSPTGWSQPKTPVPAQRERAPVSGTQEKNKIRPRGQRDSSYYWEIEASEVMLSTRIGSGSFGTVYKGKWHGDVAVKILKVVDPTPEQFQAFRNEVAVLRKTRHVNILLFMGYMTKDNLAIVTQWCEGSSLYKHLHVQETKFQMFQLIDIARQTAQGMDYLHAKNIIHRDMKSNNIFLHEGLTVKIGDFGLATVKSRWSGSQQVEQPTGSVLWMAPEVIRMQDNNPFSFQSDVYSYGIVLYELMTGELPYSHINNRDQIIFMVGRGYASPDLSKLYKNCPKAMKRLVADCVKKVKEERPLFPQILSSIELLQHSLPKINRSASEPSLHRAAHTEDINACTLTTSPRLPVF

[13] = biological target: Vascular endothelial growth factor receptor 2 (Homo sapiens, UniProt P35968); assay: Inhibition of VEGFR2 (unknown origin) measured after 40 mins by Kinase Glo luminescence assay
Sequence of Vascular endothelial growth factor receptor 2 (P35968 whole entry): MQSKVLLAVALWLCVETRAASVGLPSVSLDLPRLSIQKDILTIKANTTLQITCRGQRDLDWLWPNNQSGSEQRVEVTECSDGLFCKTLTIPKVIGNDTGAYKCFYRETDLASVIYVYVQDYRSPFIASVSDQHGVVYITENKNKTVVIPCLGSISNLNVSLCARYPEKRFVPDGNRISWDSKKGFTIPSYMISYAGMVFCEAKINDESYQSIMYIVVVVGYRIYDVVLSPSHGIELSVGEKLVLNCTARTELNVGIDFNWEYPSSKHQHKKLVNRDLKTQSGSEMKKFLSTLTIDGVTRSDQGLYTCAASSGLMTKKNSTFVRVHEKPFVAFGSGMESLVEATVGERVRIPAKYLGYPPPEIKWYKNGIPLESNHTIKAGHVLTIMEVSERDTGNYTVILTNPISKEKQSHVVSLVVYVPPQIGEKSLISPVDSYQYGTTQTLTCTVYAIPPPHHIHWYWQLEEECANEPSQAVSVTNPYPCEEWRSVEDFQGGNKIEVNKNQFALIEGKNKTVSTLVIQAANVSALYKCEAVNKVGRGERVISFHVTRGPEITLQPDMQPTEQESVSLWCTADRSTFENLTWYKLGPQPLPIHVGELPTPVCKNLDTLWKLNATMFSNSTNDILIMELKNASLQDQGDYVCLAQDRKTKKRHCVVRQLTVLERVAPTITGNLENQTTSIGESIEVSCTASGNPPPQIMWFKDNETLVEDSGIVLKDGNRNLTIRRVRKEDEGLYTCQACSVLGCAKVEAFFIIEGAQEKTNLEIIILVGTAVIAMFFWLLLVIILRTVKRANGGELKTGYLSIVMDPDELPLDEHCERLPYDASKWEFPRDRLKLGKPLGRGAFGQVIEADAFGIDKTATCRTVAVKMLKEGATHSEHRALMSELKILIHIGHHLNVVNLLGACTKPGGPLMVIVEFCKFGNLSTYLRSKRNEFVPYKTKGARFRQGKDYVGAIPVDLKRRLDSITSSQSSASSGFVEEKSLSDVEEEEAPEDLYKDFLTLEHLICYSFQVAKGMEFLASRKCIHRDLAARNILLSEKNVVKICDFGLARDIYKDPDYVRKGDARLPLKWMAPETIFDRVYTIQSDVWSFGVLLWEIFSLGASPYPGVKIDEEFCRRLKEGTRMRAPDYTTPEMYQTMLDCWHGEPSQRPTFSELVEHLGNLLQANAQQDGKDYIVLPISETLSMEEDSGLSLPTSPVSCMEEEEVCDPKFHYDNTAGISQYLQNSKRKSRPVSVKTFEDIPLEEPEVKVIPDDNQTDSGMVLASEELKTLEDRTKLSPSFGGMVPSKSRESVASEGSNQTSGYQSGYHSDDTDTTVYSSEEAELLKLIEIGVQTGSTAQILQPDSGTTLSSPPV

[14] = test system: HepG2; assay: Induction of apoptosis in human HepG2 cells assessed as early apoptotic cells at 5 uM after 24 to 72 hrs by Annexin V-FITC/propidium iodide staining based flow cytometric method (reference value: 1.28%); type: functional
[15] = test system: HepG2; assay: Induction of apoptosis in human HepG2 cells after 24 to 72 hrs by Annexin V-FITC/propidium iodide staining based flow cytometric method; type: functional, cell-based
[16] = test system: HepG2; assay: Induction of apoptosis in human HepG2 cells assessed as early apoptotic cells at 2 uM after 24 to 72 hrs by Annexin V-FITC/propidium iodide staining based flow cytometric method (reference value: 1.28%); type: functional
[17] = test system: HepG2; assay: Induction of apoptosis in human HepG2 cells assessed as decrease in mitochondrial membrane potential after 15 mins to 24 hrs by JC1 staining based fluorescence microscopic method; type: functional, cell-based
[18] = test system: HepG2; assay: Induction of apoptosis in human HepG2 cells assessed as increase in cytochrome-c expression at 10 uM after 30 mins to 24 hrs by Western blot method; type: functional, cell-based
[19] = test system: HepG2; assay: Induction of apoptosis in human HepG2 cells assessed as nuclear chromatin condensation at 2 to 10 uM after 15 mins to 24 hrs by Hoechst 33258 staining based fluorescence microscopic method; type: functional, cell-based
[20] = test system: HepG2; assay: Induction of apoptosis in human HepG2 cells assessed as decrease in Bcl-2 expression at 2 to 10 uM after 30 mins to 24 hrs by Western blot method; type: functional, cell-based
[21] = test system: HepG2; assay: Induction of apoptosis in human HepG2 cells assessed as increase in Bax expression at 2 to 10 uM after 30 mins to 24 hrs by Western blot method; type: functional, cell-based

Structure (SMILES)	IC50 [3] [µM]	IC50 [4] [µM]	IC50 [5] [µM]	further results
COc1cc2c(Nc3ccc(NC(=O)c4ccccc4)cc3)ncnc2cc1OCCCN1CCOCC1	1.4	0.11		Activity [1]: 8.86%; Activity [2]: 1.09%
CC(C)(C)OC(=O)NCC(=O)Nc1ccc2ncnc(Nc3cccc(Br)c3)c2c1	8.3		6.2	Activity [6]: 9.25%; Activity [7]: Active; Activity [1]: 32.19%; Activity [2]: 1.53%; Activity [8]: 6.38%; IC50 [9]: > 100 µM; IC50 [10]: 7.35 µM; Activity [11]: Active; IC50 [12]: 17.3 µM; IC50 [13]: 18.7 µM; Activity [14]: 1.96%; Activity [15]: Dose-dependent effect; Activity [16]: 2.08%; Activity [17]: Dose-dependent effect; Activity [18]: Active; Activity [19]: Active; Activity [20]: Active; Activity [21]: Active
CC(C)C[C@@H](NC(=O)OC(C)(C)C)C(=O)Nc1ccc2ncnc(Nc3cccc(Br)c3)c2c1	25	0.145	> 100	
CC(C)(C)OC(=O)NCC(=O)Nc1ccc2ncnc(Nc3cccc(C(F)(F)F)c3)c2c1	> 50		51	
CSCC[C@@H](NC(=O)OC(C)(C)C)C(=O)Nc1ccc2ncnc(Nc3ccc(F)c(Cl)c3)c2c1	> 50		> 100	
CC[C@H](C)[C@@H](NC(=O)OC(C)(C)C)C(=O)Nc1ccc2ncnc(Nc3ccc(F)c(Cl)c3)c2c1	> 50		> 100	
C[C@@H](NC(=O)OC(C)(C)C)C(=O)Nc1ccc2ncnc(Nc3cccc(C(F)(F)F)c3)c2c1	> 50	> 100	> 100	
CC(C)(C)OC(=O)NCC(=O)Nc1ccc2ncnc(Nc3ccc(F)c(Cl)c3)c2c1	33	0.017	23.7	
CC(C)C[C@@H](NC(=O)OC(C)(C)C)C(=O)Nc1ccc2ncnc(Nc3cccc(C(F)(F)F)c3)c2c1	> 50		> 100	
CSCC[C@@H](NC(=O)OC(C)(C)C)C(=O)Nc1ccc2ncnc(Nc3cccc(C(F)(F)F)c3)c2c1	> 50		> 100	
CC(C)C[C@@H](NC(=O)OC(C)(C)C)C(=O)Nc1ccc2ncnc(Nc3ccc(F)c(Cl)c3)c2c1	13.8	0.14	> 100	
CC[C@H](C)[C@@H](NC(=O)OC(C)(C)C)C(=O)Nc1ccc2ncnc(Nc3cccc(Br)c3)c2c1	34	0.0555	> 100	
Cc1cccc(C)c1Nc1ncnc2ccc(NC(=O)CNC(=O)OC(C)(C)C)cc12	> 50		> 100	
CC(C)[C@@H](NC(=O)OC(C)(C)C)C(=O)Nc1ccc2ncnc(Nc3cccc(Br)c3)c2c1	> 50		> 100	
CC[C@H](C)[C@@H](NC(=O)OC(C)(C)C)C(=O)Nc1ccc2ncnc(Nc3cccc(C(F)(F)F)c3)c2c1	> 50		> 100	
CC(C)[C@@H](NC(=O)OC(C)(C)C)C(=O)Nc1ccc2ncnc(Nc3ccc(F)c(Cl)c3)c2c1	> 50		> 100	
CSCC[C@@H](NC(=O)OC(C)(C)C)C(=O)Nc1ccc2ncnc(Nc3cccc(Br)c3)c2c1	> 50		> 100	
C[C@@H](NC(=O)OC(C)(C)C)C(=O)Nc1ccc2ncnc(Nc3cccc(Br)c3)c2c1	> 50	> 100	> 100	
CC(C)[C@@H](NC(=O)OC(C)(C)C)C(=O)Nc1ccc2ncnc(Nc3cccc(C(F)(F)F)c3)c2c1	4.3	1.02	> 100	IC50 [9]: 100 to 500 µM; IC50 [10]: > 100 µM; IC50 [12]: > 100 µM; IC50 [13]: > 100 µM
C[C@@H](NC(=O)OC(C)(C)C)C(=O)Nc1ccc2ncnc(Nc3ccc(F)c(Cl)c3)c2c1	> 50	> 100	> 100	
